The target in one data set is human O-GlcNAcase (Homo sapiens (Human), UniProt O60502). As to the kind of experiment: biochemical. It counts as biochemical. Particulars: read-out: OGA KI.
human O-GlcNAcase, sequence (O60502 whole entry): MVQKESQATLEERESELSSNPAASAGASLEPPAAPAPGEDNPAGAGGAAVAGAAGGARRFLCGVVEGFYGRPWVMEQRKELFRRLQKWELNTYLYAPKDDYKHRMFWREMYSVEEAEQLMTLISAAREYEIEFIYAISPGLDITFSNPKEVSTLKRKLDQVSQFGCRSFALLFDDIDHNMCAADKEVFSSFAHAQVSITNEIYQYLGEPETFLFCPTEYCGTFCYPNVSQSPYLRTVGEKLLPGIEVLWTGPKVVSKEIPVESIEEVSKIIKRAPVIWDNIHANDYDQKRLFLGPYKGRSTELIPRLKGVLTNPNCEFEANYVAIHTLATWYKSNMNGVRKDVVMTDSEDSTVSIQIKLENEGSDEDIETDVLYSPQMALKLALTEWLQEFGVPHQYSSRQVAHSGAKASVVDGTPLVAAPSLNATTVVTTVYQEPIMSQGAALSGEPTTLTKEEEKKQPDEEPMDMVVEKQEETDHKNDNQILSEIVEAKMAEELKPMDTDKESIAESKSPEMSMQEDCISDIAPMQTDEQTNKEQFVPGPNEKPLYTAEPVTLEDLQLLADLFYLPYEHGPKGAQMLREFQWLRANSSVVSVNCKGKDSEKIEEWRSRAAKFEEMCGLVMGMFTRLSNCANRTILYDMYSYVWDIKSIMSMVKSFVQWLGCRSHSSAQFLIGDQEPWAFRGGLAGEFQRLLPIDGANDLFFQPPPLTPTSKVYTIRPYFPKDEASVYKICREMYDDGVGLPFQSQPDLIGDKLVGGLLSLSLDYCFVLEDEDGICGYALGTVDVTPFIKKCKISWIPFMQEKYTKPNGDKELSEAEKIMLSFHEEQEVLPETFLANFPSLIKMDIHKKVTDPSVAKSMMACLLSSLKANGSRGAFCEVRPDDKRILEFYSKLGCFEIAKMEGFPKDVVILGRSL
For orientation: Ki means the dissociation constant of the complex between target and ligand, obtained from inhibition or displacement. With `CN(C)C1=N[C@@H]2[C@@H](O)[C@H](O)[C@@H]([C@@H](OCc3ccc(-c4ccccc4)cc3)C(F)(F)F)O[C@@H]2S1` [Example 44, (3aR,5S,6S,7R,7aR)-5-((R)-1-(biphenyl-4-ylmethoxy)-2,2,2-trifluoroethyl)-2-(dimethylamino)-5,6,7,7a-tetrahydro-3aH-pyrano[3,2-d]thiazole-6,7-diol], the inhibition constant Ki was determined as 3.05 nM.

Tested on in the next data set: not listed separately
Put plainly: Assay for determination of apparent permeability (Papp), bi-directional transport. The conditions noted are these: pig, LLC-PK1.
The term Papp denotes a coefficient for how fast a substance crosses the barrier. Consider `CNC1=N[C@@H]2[C@@H](O)[C@H](O)[C@@H]([C@@H](OCc3ccc(C(F)(F)F)cc3)C(F)(F)F)O[C@@H]2S1` [Example 94, (3aR,5S,6S,7R,7aR)-2-(mcthylamino)-5-((R)-2,2,2-trifluoro-1-(4-(trifluoromethyl)benzyloxy)ethyl)-5,6,7,7a-tetrahydro-3aH-pyrano[3,2-d]thiazole-6,7-diol], for which the Papp at 3 h, 1 μM is 24.6 ×10⁻⁶ cm/s.
Consider `COc1c(C)cc(CO[C@H]([C@H]2O[C@@H]3SC(N(C)C)=N[C@@H]3[C@@H](O)[C@@H]2O)C(F)(F)F)cc1C` [Example 60, (3aR,5S,6S,7R,7aR)-2-(dimethylamino)-5-((R)-2,2,2-trifluoro-1-(4-methoxy-3,5-dimethylbenzyloxy)ethyl)-5,6,7,7a-tetrahydro-3aH-pyrano[3,2-d]thiazole-6,7-diol], for which the Papp at 3 h, 1 μM worked out at 29 ×10⁻⁶ cm/s.
Regarding `CN(C)C1=N[C@@H]2[C@@H](O)[C@H](O)[C@@H]([C@@H](OCc3ccccc3C(F)(F)F)C(F)(F)F)O[C@@H]2S1` [Example 68, (3aR,5S,6S,7R,7aR)-2-(dimethylamino)-5-((R)-2,2,2-trifluoro-1-(2-(trifluoromethyl)benzyloxy)ethyl)-5,6,7,7a-tetrahydro-3aH-pyrano[3,2-d]thiazole-6,7-diol], the apparent permeability (Papp) at 3 h, 1 μM was determined as 34.1 ×10⁻⁶ cm/s.
`CN(C)C1=N[C@@H]2[C@@H](O)[C@H](O)[C@@H]([C@H](OCc3cccc(F)c3)C(F)(F)F)O[C@@H]2S1` [Example 63, (3aR,5S,6S,7R,7aR)-2-(dimethylamino)-5-((S)-2,2,2-trifluoro-1-(3-fluorobenzyloxy)ethyl)-5,6,7,7a-tetrahydro-3aH-pyrano[3,2-d]thiazole-6,7-diol]: the Papp at 3 h, 1 μM was 31.2 ×10⁻⁶ cm/s.
`CN[C@H]([C@H]1O[C@@H]2SC(N(C)C)=N[C@@H]2[C@@H](O)[C@@H]1O)C(F)(F)F` [Example 16, (3aR,5R,6S,7R,7aR)-2-(dimethylamino)-5-((R)-2,2,2-trifluoro-1-(methylamino)ethyl)-5,6,7,7a-tetrahydro-3aH-pyrano[3,2-d]thiazole-6,7-diol]: the Papp at 3 h, 1 μM was determined as 15.5 ×10⁻⁶ cm/s.
Still for that read-out and setting: the same measure for `CNC1=N[C@@H]2[C@@H](O)[C@H](O)[C@@H]([C@@H](OCc3ccc(OC)cc3)C(F)(F)F)O[C@@H]2S1` [Example 97, 2-(methylamino)-5-(2,2,2-trifluoro-1-(4-methoxybenzyloxy)ethyl)-5,6,7,7a-tetrahydro-3aH-pyrano[3,2-d]thiazole-6,7-diol]: 24.7 ×10⁻⁶ cm/s; for `CN(C)C1=N[C@@H]2[C@@H](O)[C@H](O)[C@@H]([C@@H](OCc3cccc(C(F)(F)F)c3)C(F)(F)F)O[C@@H]2S1` [Example 67, (3aR,5S,6S,7R,7aR)-2-(dimethylamino)-5-((R)-2,2,2-trifluoro-1-(3-(trifluoromethyl)benzyloxy)ethyl)-5,6,7,7a-tetrahydro-3aH-pyrano[3,2-d]thiazole-6,7-diol]: 29.5 ×10⁻⁶ cm/s.
Same read-out and setting: the same measure for `CN(C)C1=N[C@@H]2[C@@H](O)[C@H](O)[C@@H]([C@@H](Oc3ccc([N+](=O)[O-])cc3)C(F)(F)F)O[C@@H]2S1` [Example 9, (3aR,5S,6S,7R,7aR)-2-(dimethylamino)-5-((R)-2,2,2-trifluoro-1-(4-nitrophenoxy)ethyl)-5,6,7,7a-tetrahydro-3aH-pyrano[3,2-d]thiazole-6,7-diol]: 31.5 ×10⁻⁶ cm/s.
For `C[C@H](O[C@H]([C@H]1O[C@@H]2SC(N(C)C)=N[C@@H]2[C@@H](O)[C@@H]1O)C(F)(F)F)c1ccccc1` [Example 47, (3aR,5S,6S,7R,7aR)-2-(dimethylamino)-5-((R)-2,2,2-trifluoro-1-((S)-1-phenylethoxy)ethyl)-5,6,7,7a-tetrahydro-3aH-pyrano[3,2-d]thiazole-6,7-diol], the Papp at 3 h, 1 μM stood at 34 ×10⁻⁶ cm/s.
Same read-out and setting: the same measure for `CNC1=N[C@@H]2[C@@H](O)[C@H](O)[C@@H]([C@@H](OCc3ccccc3C(F)(F)F)C(F)(F)F)O[C@@H]2S1` [Example 93, (3aR,5S,6S,7R,7aR)-2-(methylamino)-5-((R)-2,2,2-trifluoro-1-(2-(trifluoromethyl)benzyloxy)ethyl)-5,6,7,7a-tetrahydro-3aH-pyrano[3,2-d]thiazole-6,7-diol]: 29.2 ×10⁻⁶ cm/s; for `CNC1=N[C@@H]2[C@@H](O)[C@H](O)[C@@H]([C@@H](OCc3ccc(OC)c(C(F)(F)F)c3)C(F)(F)F)O[C@@H]2S1` [Example 98, (3aR,5S,6S,7R,7aR)-2-(methylamino)-5-((R)-2,2,2-trifluoro-1-(4-methoxy-3-(trifluoromethyl)benzyloxy)ethyl)-5,6,7,7a-tetrahydro-3aH-pyrano[3,2-d]thiazole-6,7-diol]: 29.1 ×10⁻⁶ cm/s.
Same read-out and setting: the same measure for `CNC1=N[C@@H]2[C@@H](O)[C@H](O)[C@@H]([C@H](Oc3ccccc3)C(F)(F)F)O[C@@H]2S1` [Example 3, (3aR,5S,6S,7R,7aR)-2-(methylamino)-5-((S)-2,2,2-trifluoro-1-phenoxyethyl)-5,6,7,7a-tetrahydro-3aH-pyrano[3,2-d]thiazole-6,7-diol]: 28.3 ×10⁻⁶ cm/s; for `COc1cccc(CO[C@H]([C@H]2O[C@@H]3SC(N(C)C)=N[C@@H]3[C@@H](O)[C@@H]2O)C(F)(F)F)c1` [Example 51, (3aR,5S,6S,7R,7aR)-2-(dimethylamino)-5-((R)-2,2,2-trifluoro-1-(3-methoxybenzyloxy)ethyl)-5,6,7,7a-tetrahydro-3aH-pyrano[3,2-d]thiazole-6,7-diol]: 30.9 ×10⁻⁶ cm/s.
With `COc1ccccc1CO[C@@H]([C@H]1O[C@@H]2SC(N(C)C)=N[C@@H]2[C@@H](O)[C@@H]1O)C(F)(F)F` [Example 49, (3aR,5S,6S,7R,7aR)-2-(dimethylamino)-5-((S)-2,2,2-trifluoro-1-(2-mcthoxybenzyloxy)ethyl)-5,6,7,7a-tetrahydro-3aH-pyrano[3,2-d]thiazole-6,7-diol], the Papp at 3 h, 1 μM turned out to be 29.8 ×10⁻⁶ cm/s.
With `CNC1=N[C@@H]2[C@@H](O)[C@H](O)[C@@H]([C@@H](OCc3ccc(Oc4ccccc4)cc3)C(F)(F)F)O[C@@H]2S1` [Example 99, (3aR,5S,6S,7R,7aR)-2-(methylamino)-5-((R)-2,2,2-trifluoro-1-(4-phenoxybenzyloxy)ethyl)-5,6,7,7a-tetrahydro-3aH-pyrano[3,2-d]thiazole-6,7-diol], the Papp at 3 h, 1 μM is 21.7 ×10⁻⁶ cm/s.
Take `COc1ccc(CO[C@H]([C@H]2O[C@@H]3SC(N(C)C)=N[C@@H]3[C@@H](O)[C@@H]2O)C(F)(F)F)cc1C` [Example 54, (3aR,5S,6S,7R,7aR)-2-(dimethylamino)-5-((R)-2,2,2-trifluoro-1-(4-methoxy-3-methylbenzyloxy)ethyl)-5,6,7,7a-tetrahydro-3aH-pyrano[3,2-d]thiazole-6,7-diol]: the Papp at 3 h, 1 μM was 31.3 ×10⁻⁶ cm/s.
Same read-out and setting: the same measure for `CNC1=N[C@@H]2[C@@H](O)[C@H](O)[C@@H]([C@@H](OCCCc3ccc(F)cc3)C(F)(F)F)O[C@@H]2S1` [Example 83, (3aR,5S,6S,7R,7aR)-2-(methylamino)-5-((R)-2,2,2-trifluoro-1-(3-(4-fluorophenyl)propoxy)ethyl)-5,6,7,7a-tetrahydro-3aH-pyrano[3,2-d]thiazole-6,7-diol]: 29.7 ×10⁻⁶ cm/s.
